# Data taken from patent US6696480B2, “Upregulation of type III endothelial cell nitric oxide synthase by agents that disrupt actin cytoskeletal organization” (Brigham and Women's Hospital, Inc., priority 1998, dated 2004).
# Values joined by “and” are separate entries in the source; they are usually repeats but may differ in a detail not shown here. Identical values can stand only once. Like-named read-outs stand apart in the source and are kept apart here.
# What was measured:
# [1] = test system: ecNOS mRNA; experiment: Northern blotting of ecNOS steady-state mRNA in endothelial cells; assay type: cell-based, human; design: ecNOS mRNA levels increased to / ecNOS mRNA levels, % of basal levels / effect on basal ecNOS mRNA levels: unit of the concentration uncertain; conditions: for increase in ecNOS mRNA levels compared to ox-LDL: co-treatment with ox-LDL, simvastatin 0.1 mmol/L; for ecNOS mRNA levels, % of basal levels: hypoxia + simvastatin (1 (unit uncertain))
# Method: Equal amounts of total RNA (10-20 mg) were separated by 1.2% formaldehyde-agarose gel electrophoresis and transferred overnight onto Hybond nylon membranes. […] All Northern blots were subjected to stringent washing conditions (0.2× SSC/0.1% SDS at 65° C.) prior to autoradiography. RNA loading was determined by rehybridization with human GAPDH probe.
# [2] = test system: ecNOS; experiment: ecNOS activity, LNMA-inhibitable nitrite production (modified nitrite assay); assay type: cell-based, human
# [3] = test system: ecNOS mRNA; experiment: ecNOS mRNA half-life in the presence of actinomycin D; assay type: cell-based, human; conditions: for half-life of ecNOS mRNA (t1/2) / ecNOS mRNA half-life: actinomycin D; for ecNOS mRNA half-life: simvastatin 1 mM
# [4] = test system: ecNOS; experiment: ecNOS activity from tissues, arginine to citrulline conversion in mouse aortae; assay type: in vivo, SV-129 mice; conditions: 2 mg/kg, 14 days
# Method: The ecNOS activities in mice aortae and brains were measured by the conversion of [^3H]arginine to [^3H]citrulline in the presence and absence of LNMA (5 mM) as described earlier.
# [5] = test system: ecNOS mRNA; experiment: Quantitative RT-PCR of ecNOS mRNA in mouse aortae and brains; assay type: in vivo, SV-129 mice; conditions: dose-dependent, 14 days
# From the text: Total RNA from mouse aortae and brains was isolated by the guanidinium isothiocyanate method and reverse transcribed using oligo-dT (mRNA Preamplification reagents; Gibco BRL) and Taq ploymerase (Perkin-Elmer). One tenth of the sDNA was used as template for the PCR reaction. […] [NT] ID NO. 1) and 3'Primer: […] For amplification of glyceraldehyde 3-phosphate dehydrogenase (GAPDH), 0.1 nmol of the following primers amplifying a 452-bp fragment were used: 5'Primer: [NT] ID NO. 3) and 3' Primer: […] NO. 4). Denaturing was performed at 94° C. for 30 s, annealing at 60° C. for 30 s, and elongation at 72° C. for 60 s.
# [6] = test system: cerebral ischemia, left middle cerebral artery (MCA) occlusion; experiment: Murine model of cerebral vascular ischemia (MCA occlusion); assay type: in vivo, SV-129 mice
# From the text: Ischemia was produced by occluding the left middle cerebral artery (MCA) with a coated 8.0 nylon monofilament under anesthesia as described (Huang, Z et al., J Cereb Blood Flow Metab, 1996, 16:981-987, Huang, Z et al., Science, 1994, 265:1883-1885, Hara, H et al., J Cereb Blood Flow Metab, 1997, 1:515-526). Arterial blood pressure, heart rate, arterial oxygen pressure, and partial pressure of carbon dioxide were monitored as described (Huang, Z et al., J Cereb Blood Flow Metab, 1996, 16:981-987, Huang, Z et al., Science, 1994, 265:1883-1885, Hara, H et al., J Cereb Blood Flow Metab, 1997, 1:515-526). The filaments were withdrawn after 2 hours and after 24 h, mice were either sacrificed or tested for neurological deficits using a well-established, standardized, observer-blinded protocol as described (Huang, Z et al., J Cereb Blood Flow Metab, 1996, 16:981-987, Huang, Z et al., Science, 1994, 265:1883-1885, Hara, H et al., J Cereb Blood Flow Metab, 1997, 1:515-526). The motor deficit score range from 0 (no deficit) to 2 (complete deficit).
# Brains were divided into five coronal 2-mm sections using a mouse brain matrix (RBM-200C, Activated Systems, Ann Arbor, Mich., USA). Infarction volume was quantitated with an image analysis system (M4, St. Catharines, Ontario, Canada) on 2% 2,3,5-triphenyltetrazolium chloride stained 2-mm slices. The levels of serum cholesterol, creatinine and transaminases were determined by the Tufts University Veterinary Diagnostic Laboratory (Grafton, Mass.).
# [7] = test system: ecNOS protein; conditions: for increase in ecNOS protein levels compared to ox-LDL alone: co-treatment with ox-LDL, simvastatin 0.1 mmol/L; for ecNOS protein levels, % of basal levels: hypoxia (3% O2)
# [8] = test system: ecNOS gene transcription; experiment: Nuclear run-on assay of ecNOS gene transcription
# [9] = test system: human endothelial cells; experiment: Cellular viability (cell count, morphology, Trypan blue exclusion); conditions: simvastatin 0.01 to 0.1 mmol/L, lovastatin 10 mmol/L, up to 96 h
# [10] = ox-LDL + simvastatin 0.1 mmol/L
# [11] = simvastatin 1 mM alone (20% O2)
# [12] = wild-type mice, 2 mg/kg, 14 days
structure (smiles),measurement,setting,value
CCC(C)(C)C(=O)O[C@H]1C[C@@H](C)C=C2C=C[C@H](C)[C@H](CC[C@@H]3C[C@@H](O)CC(=O)O3)[C@H]21 [simvastatin],increase in ecNOS mRNA levels compared to ox-LDL,[1]; 48 h,6.3 fold
same,increase in ecNOS mRNA levels compared to ox-LDL,[1]; 72 h,14.5 fold
same,"ecNOS mRNA levels, % of basal levels",[1]; 24 h,195±12%
same,"ecNOS mRNA levels, % of basal levels",[1]; 48 h,530±30%
same,ecNOS mRNA levels increased to,"[1]; simvastatin (1 (unit uncertain)) alone, normoxia",340±24%
same,decrease in ecNOS activity compared to untreated cells,[2]; [10],28±3%
same,ecNOS-dependent nitrite production,[2]; [10],"6.4±0.3 nmol/500,000 cells/24 h"
same,ecNOS-dependent nitrite production,[2]; ox-LDL + simvastatin 1 mmol/L,"12.8±2.7 nmol/500,000 cells/24 h"
same,increase in ecNOS activity compared to baseline,[2]; ox-LDL + simvastatin 1 mmol/L,45±6%
same,nitrite production,[2]; [11],"30±6.5 nmol/500,000 cells/24 h"
same,upregulation of nitrite production,[2]; [11],5 fold
same,increase in ecNOS activity over basal activity,"[2]; simvastatin 1 mM, 3% O2, 24 h",3 fold
same,nitrite production,"[2]; simvastatin 1 mM, 3% O2, 24 h","18±5.0 nmol/500,000 cells/24 h"
same,prolongation of ecNOS mRNA half-life,"[3]; ox-LDL + simvastatin 0.1 mmol/L, versus ox-LDL",1.6 fold
same,half-life of ecNOS mRNA (t1/2),[3]; [10],22 ± 3 h
same,ecNOS mRNA half-life,[3]; hypoxic,38 ± 4 h
same,ecNOS mRNA half-life,[3]; normoxic,46 ± 4 h
same,prolongation of ecNOS mRNA half-life over baseline,[3]; simvastatin alone,1.3 fold
same,half-life of ecNOS mRNA (t1/2),[3]; simvastatin alone,43 ± 4 h
same,ecNOS activity in aortae,[4],0.39±0.09 U/mg protein
same,increase of ecNOS message compared to that of GAPDH in aortae,[5],3 fold
same,increase in cerebral blood flow over basal values,[6]; 2 mg/kg,23%
same,improvement of neurological motor deficit score compared to controls,"[6]; 2 mg/kg, 14 days",~2 fold
same,neurological motor deficit score,"[6]; 2 mg/kg, 14 days, 2 h MCA occlusion, 22 hours of reperfusion, score 0 to 2",0.8±0.2
same,increase in cerebral blood flow over basal values,[6]; 20 mg/kg,35%
same,persistence of the effect on cerebral infarct size,"[6]; mouse, in vivo",up to 3 days
same,cerebral infarct size,[6]; [12],73.8±8.5 mm3
same,smaller cerebral infarct sizes compared to untreated animals,[6]; [12],25%
same,increase in ecNOS protein levels compared to ox-LDL alone,[7]; 24 h,1.3 fold
same,increase in ecNOS protein levels compared to ox-LDL alone,[7]; 72 h,3.3 fold
same,increase in ecNOS protein levels compared to ox-LDL alone,[7]; 96 h,8.9 fold
same,"ecNOS protein levels, % of basal levels","[7]; 48 h, simvastatin 1 mM",159±13%
same,"ecNOS protein levels, % of basal levels","[7]; 48 h, simvastatin 10 mM",223±21%
same,effect on ecNOS expression,[7]; not chemically-activated statin (10),no effect
same,decrease in ecNOS protein,"[7]; ox-LDL + simvastatin 0.01 mmol/L, 48 h",57%±8%
same,decrease in ecNOS protein level,"[7]; ox-LDL + simvastatin 0.1 mmol/L, 24 h",15% (2%
same,decrease in ecNOS protein,"[7]; ox-LDL + simvastatin 0.1 mmol/L, 48 h",4%±7%
same,ecNOS protein levels increased above basal expression,"[7]; ox-LDL + simvastatin 0.1 mmol/L, 72 h",110% (6%
same,ecNOS protein levels increased above basal expression,"[7]; ox-LDL + simvastatin 0.1 mmol/L, 96 h",124% (6%
same,ecNOS protein levels above baseline,"[7]; ox-LDL + simvastatin 1 mmol/L, 48 h",146%±9% and 150% (8%
same,upregulation of ecNOS expression,[7]; simvastatin alone (1),2.9 fold
same,decrease in ecNOS gene transcription,[8]; hypoxia + simvastatin 1 mM,83±6%
same,increase in ecNOS gene transcription,"[8]; simvastatin alone, normoxic condition",20±5%
same,noticeable adverse effects on human endothelial cell,[9],Neither simvastatin (0.01 to 0.1 mmol/L) nor lovastatin (10 mmol/L) produced any noticeable adverse effects
